Data: US20250051347A1, “BIFUNCTIONAL CHIMERIC HETEROCYCLIC COMPOUND AND USE THEREOF AS ANDROGEN RECEPTOR DEGRADER” (Hinova Pharmaceuticals, Inc., priority 2021, published 2025)
Like-named read-outs stand apart in the source and are kept apart here.

Key:
[1] = system: 22RV1 cells
[2] = molecular target: T1, androgen receptor (AR) splicing variant AR-v7 (Homo sapiens, UniProt P10275); assay: Degradation activity on androgen receptor splicing variant AR-v7 in 22RV1 cells (ELISA); type: cell-based; conditions: AR-v7 degradation in 22RV1 cells, 48 h, class symbols
T1 construct: The degradation activity of compounds on AR-v7 in 22RV1 cells; host or cells: 22RV1 cells
T1 sequence (P10275 1-644 isoform P10275-3): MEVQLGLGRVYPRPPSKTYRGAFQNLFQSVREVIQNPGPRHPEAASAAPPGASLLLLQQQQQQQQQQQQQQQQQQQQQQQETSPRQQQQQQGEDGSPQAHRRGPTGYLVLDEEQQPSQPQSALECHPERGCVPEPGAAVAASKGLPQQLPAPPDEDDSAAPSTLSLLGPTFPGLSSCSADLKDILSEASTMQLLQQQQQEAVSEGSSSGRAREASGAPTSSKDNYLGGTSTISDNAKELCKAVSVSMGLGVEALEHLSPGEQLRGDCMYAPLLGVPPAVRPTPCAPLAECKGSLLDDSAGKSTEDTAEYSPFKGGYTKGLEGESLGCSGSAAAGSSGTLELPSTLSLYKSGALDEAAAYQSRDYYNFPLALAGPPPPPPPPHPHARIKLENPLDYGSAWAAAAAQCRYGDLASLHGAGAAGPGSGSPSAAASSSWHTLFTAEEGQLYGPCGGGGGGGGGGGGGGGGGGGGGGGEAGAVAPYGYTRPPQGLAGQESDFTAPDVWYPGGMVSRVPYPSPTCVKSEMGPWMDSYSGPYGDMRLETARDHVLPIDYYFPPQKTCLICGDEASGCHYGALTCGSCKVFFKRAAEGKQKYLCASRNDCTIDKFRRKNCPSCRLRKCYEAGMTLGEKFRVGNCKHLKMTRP

[3] = Homo sapiens, 22Rv1, 144 h, read-out: 22RV1 IC50 (nM), 22RV1 cells, 6 days culture, CCK-8, OD 450 nm
[4] = read-out: 22RV1 IC50, 22RV1 cells, 6 days culture, CCK-8, OD 450 nm

Row | SMILES | IC50 [1, 3] | DC50 [2] | IC50 [1, 4]
1 | CCC(CC)(c1ccc(Oc2cnc(C(C)O)nc2)cc1)c1ccc(O[C@H]2C[C@H](Nc3ccc4c(c3)C(=O)N(C3CCC(=O)NC3=O)C4=O)C2)cc1 (stereo partly drawn) [Example 131] | 4 nM | < 0.01 µM | 
2 | CCC(CC)(c1ccc(Oc2cnc(C(C)=O)nc2)cc1)c1ccc(O[C@H]2C[C@H](Nc3ccc4c(c3)C(=O)N(C3CCC(=O)NC3=O)C4=O)C2)cc1 (stereo partly drawn) [Example 132] | 5 nM | < 0.01 µM | 
3 | CCC(CC)(c1ccc(Oc2cnc(C(C)O)nc2)cc1)c1ccc(O[C@H]2C[C@@H](Nc3ccc4c(c3)C(=O)N(C3CCC(=O)NC3=O)C4=O)C2)cc1 (stereo partly drawn) [Example 133] |  | < 0.01 µM | 9 nM
4 | CC(O)c1ncc(Oc2ccc(C3(c4ccc(O[C@H]5C[C@H](Nc6ccc7c(c6)C(=O)N(C6CCC(=O)NC6=O)C7=O)C5)cc4)CCCC3)cc2)cn1 (stereo partly drawn) [Example 134] | < 1 nM | < 0.01 µM | 
5 | CC(=O)c1ncc(Oc2ccc(C3(c4ccc(O[C@H]5C[C@H](Nc6ccc7c(c6)C(=O)N(C6CCC(=O)NC6=O)C7=O)C5)cc4)CCCC3)cc2)cn1 (stereo partly drawn) [Example 135] | 2 nM | < 0.01 µM | 
6 | CN1CCN(C(=O)c2noc(COc3ccc(C(C)(C)c4ccc(OCCCNc5ccc6c(c5)C(=O)N(C5CCC(=O)NC5=O)C6=O)cc4)cc3)n2)CC1 (stereo not drawn) [Example 141] | 85 nM | 0.011 to 0.1 µM | 
7 | CC(C)(c1ccc(OCCCNc2ccc3c(c2)C(=O)N(C2CCC(=O)NC2=O)C3=O)cc1)c1ccc(OCc2nc(C(=O)N3CCOCC3)no2)cc1 (stereo not drawn) [Example 142, 2-(2,6-dioxopiperidin-3-yl)-5-((3-(4-(2-(4-((3-(morpholine-4-carbonyl)-1,2,4-oxadiazol-5-yl)methoxy)phenyl)propan-2-yl)phenoxy)propyl)amino)isoindolin-1,3-dione] | 61 nM | 0.011 to 0.1 µM | 
8 | CC(C)(c1ccc(OCCCNc2ccc3c(c2)C(=O)N(C2CCC(=O)NC2=O)C3=O)cc1)c1ccc(OCc2nc(C(N)=O)no2)cc1 (stereo not drawn) [Example 143, 5-((4-(2-(4-(3-((2-(2,6-dioxopiperidin-3-yl)-1,3-dioxoisoindolin-5-yl)amino)propoxy)phenyl)propan-2-yl)phenoxy)methyl)-1,2,4-oxadiazol-3-carbonylamine] | 160 nM | 0.011 to 0.1 µM | 
9 | CC(C)(c1ccc(Oc2ncnc(N3CC4(COC4)C3)n2)cc1)c1ccc(O[C@H]2C[C@H](Nc3ccc4c(c3)C(=O)N(C3CCC(=O)NC3=O)C4=O)C2)cc1 (stereo partly drawn) [Example 160] | 8 nM | < 0.01 µM | 
10 | CC(C)(O)c1cncc(Oc2ccc(C(C)(C)c3ccc(O[C@H]4C[C@H](Nc5ccc6c(c5)C(=O)N(C5CCC(=O)NC5=O)C6=O)C4)cc3)cc2)n1 (stereo partly drawn) [Example 162] | 10 nM | < 0.01 µM | 
11 | CC(C)(c1ccc(Oc2cc(-n3nccn3)ccn2)cc1)c1ccc(O[C@H]2C[C@H](Nc3ccc4c(c3)C(=O)N(C3CCC(=O)NC3=O)C4=O)C2)cc1 (stereo partly drawn) [Example 168] | 18 nM | 0.011 to 0.1 µM | 
12 | CC(C)(c1ccc(Oc2cc(-n3ccnn3)ccn2)cc1)c1ccc(O[C@H]2C[C@H](Nc3ccc4c(c3)C(=O)N(C3CCC(=O)NC3=O)C4=O)C2)cc1 (stereo partly drawn) [Example 169] | 10 nM | < 0.01 µM | 
13 | CCC(CC)(c1ccc(Oc2ccc(C(C)=O)nn2)cc1)c1ccc(O[C@H]2C[C@H](Nc3ccc4c(c3)C(=O)N(C3CCC(=O)NC3=O)C4=O)C2)cc1 (stereo partly drawn) [Example 176, 5-(((1r,3r)-3-(4-(3-(4-((6-acetylpyridazine-3-yl)oxy)phenyl)pentan-3-yl)phenoxy)cyclobutyl)amino)-2-(2,6-dioxopiperidin-3-yl)isoindolin-1,3-dione] | 2 nM | < 0.01 µM | 
14 | CC(=O)c1cnc(Oc2ccc(C3(c4ccc(OC5CC(Nc6ccc7c(c6)C(=O)N(C6CCC(=O)NC6=O)C7=O)C5)cc4)CCCC3)cc2)cn1 (stereo not drawn) [Example 177, 5-(((1r,3r)-3-(4-(1-(4-((5-acetylpyrazin-2-yl)oxy)phenyl)cyclopentyl)phenoxy)cyclobutyl)amino)-2-(2,6-dioxopiperidin-3-yl)isoindolin-1,3-dione] |  | < 0.01 µM | 2 nM
15 | C[C@@H](O)c1cnc(Oc2ccc(C3(c4ccc(OC5CC(Nc6ccc7c(c6)C(=O)N(C6CCC(=O)NC6=O)C7=O)C5)cc4)CCCC3)cc2)cn1 (stereo partly drawn) [Example 178, 2-(2,6-dioxopiperidin-3-yl)-5-(((1r,3r)-3-(4-(1-(4-((5-(1-hydroxylethyl)pyrazin-2-yl)oxy)phenyl)cyclopentyl)phenoxy)cyclobutyl)amino) isoindolin-1,3-dione] |  | < 0.01 µM | 5 nM
16 | CN(C)C(=O)c1noc(COc2ccc(C(C)(C)c3ccc(OCCCNc4cccc5c4C(=O)N(C4CCC(=O)NC4=O)C5=O)cc3)cc2)n1 (stereo not drawn) [Example 181, 5-((4-(2-(4-(3-((2-(2,6-dioxopiperidin-3-yl)-1,3-dioxoisoindolin-4-yl)amino)propoxy)phenyl)propan-2-yl)phenoxy)methyl)-N,N-dimethyl-1,2,4-oxadiazol-3-carbonylamine] | 140 nM | 1 to 5 µM | 
17 | CC(C)(c1ccc(OCCCNc2ccc3c(c2)C(=O)N(C2CCC(=O)NC2=O)C3=O)cc1)c1ccc(OCc2ccnc(C(N)=O)n2)cc1 (stereo not drawn) [Example 182, 4-((4-(2-(4-(3-((2-(2,6-dioxopiperidin-3-yl)-1,3-dioxoisoindolin-5-yl)amino)propoxy)phenyl)propan-2-yl)phenoxy)methyl)pyrimidin-2-carbonylamine] | 50 nM | 0.011 to 0.1 µM | 

Further lines, results first:

Row | IC50 [1, 3] | DC50 [2] | IC50 [1, 4] | SMILES
18 | 7 nM | < 0.01 µM |  | CC(O)c1ccc(Oc2ccc(C(C)(C)c3ccc(O[C@H]4C[C@H](Nc5ccc6c(c5)C(=O)N(C5CCC(=O)NC5=O)C6=O)C4)cc3)cc2)cn1 (stereo partly drawn) [Example 123]
19 | 8 nM | < 0.01 µM |  | CC(=O)c1ccc(Oc2ccc(C(C)(C)c3ccc(O[C@H]4C[C@H](Nc5ccc6c(c5)C(=O)N(C5CCC(=O)NC5=O)C6=O)C4)cc3)cc2)cn1 (stereo partly drawn) [Example 124]
20 | 7 nM | 0.011 to 0.1 µM |  | CC(=O)c1ncc(Oc2ccc(C(C)(C)c3ccc(O[C@H]4C[C@@H](Nc5ccc6c(c5)C(=O)N(C5CCC(=O)NC5=O)C6=O)C4)cc3)cc2)cn1 (stereo partly drawn) [Example 128, 5-(((cis)-3-(4-(2-(4-((2-acetylpyrimidin-5-yl)oxy)phenyl)propan-2-yl)phenoxy)cyclobutyl)amino)-2-(2,6-dioxopiperidin-3-yl)isoindolin-1,3-dione]
21 | 13 nM | < 0.01 µM |  | CC(=O)c1cnc(Oc2ccc(C(C)(C)c3ccc(O[C@H]4C[C@@H](Nc5ccc6c(c5)C(=O)N(C5CCC(=O)NC5=O)C6=O)C4)cc3)cc2)cn1 (stereo partly drawn) [Example 130]
22 | 39 nM | < 0.01 µM |  | CC(C)(c1ccc(Oc2nccc(N3CC4(COC4)C3)n2)cc1)c1ccc(O[C@H]2C[C@@H](Nc3ccc4c(c3)C(=O)N(C3CCC(=O)NC3=O)C4=O)C2)cc1 (stereo partly drawn) [Example 155]
23 | 10 nM | < 0.01 µM |  | CC(C)(c1ccc(Oc2nccc(N3CC4(COC4)C3)n2)cc1)c1ccc(O[C@H]2C[C@H](Nc3ccc4c(c3)C(=O)N(C3CCC(=O)NC3=O)C4=O)C2)cc1 (stereo partly drawn) [Example 156]
24 | 10 nM | < 0.01 µM |  | CC(C)(O)c1ccnc(Oc2ccc(C(C)(C)c3ccc(O[C@H]4C[C@H](Nc5ccc6c(c5)C(=O)N(C5CCC(=O)NC5=O)C6=O)C4)cc3)cc2)n1 (stereo partly drawn) [Example 161]
25 | 9 nM | < 0.01 µM |  | CC(C)(c1ccc(Oc2nccc(-n3nccn3)n2)cc1)c1ccc(O[C@H]2C[C@H](Nc3ccc4c(c3)C(=O)N(C3CCC(=O)NC3=O)C4=O)C2)cc1 (stereo partly drawn) [Example 170, 5-(((1r,3r)-3-(4-(2-(4-((4-(2H-1,2,3-triazol-2-yl)pyrimidin-2-yl)oxy)phenyl)propan-2-yl)phenoxy)cyclobutyl)amino)-2-(2,6-dioxopiperidin-3-yl)isoindol-1,3-dione]
26 | 19 nM | < 0.01 µM |  | Cc1nnc(-c2cc(Oc3ccc(C(C)(C)c4ccc(O[C@H]5C[C@H](Nc6ccc7c(c6)C(=O)N(C6CCC(=O)NC6=O)C7=O)C5)cc4)cc3)ccn2)o1 (stereo partly drawn) [Example 172, 2-(2,6-dioxopyridin-3-yl)-5-(((1r,3r)-3-(4-(2-(4-((2-(5-methyl-1,3,4-oxadiazol-2-yl)pyridin-4-yl)oxy)phenyl)propan-2-yl)phenoxy)cyclobutyl)amino) isoindolin-1,3-dione]
27 | 13 nM | 0.011 to 0.1 µM |  | Cc1nc(-c2ccnc(Oc3ccc(C(C)(C)c4ccc(O[C@H]5C[C@@H](Nc6ccc7c(c6)C(=O)N(C6CCC(=O)NC6=O)C7=O)C5)cc4)cc3)n2)no1 (stereo partly drawn) [Example 173, 2-(2,6-dioxopiperidin-3-yl)-5-(((1s,3s)-3-(4-(2-(4-((4-(5-methyl-1,2,4-oxadiazol-3-yl)pyrimidin-2-yl)oxy)phenyl)propan-2-yl)phenoxy)cyclobutyl)amino)isoindolin-1,3-dione]
